# Assay results from patent EP4768484A1, “HETEROCYCLIC FUSED RING COMPOUND, AND COMPOSITION AND USE THEREOF” (Shenzhen TargetRx, Inc., priority 2023, dated 2025).
# Legend:
# Assay type in all cases: cell-based
# [1] = molecular target: T1, Ba/F3 BCR-ABL1 Y253H/E255K (Homo sapiens, UniProt P00519+P11274, E255K/Y253H); test: Cell growth inhibitory activity assay (CellTiter-Glo), Ba/F3 BCR-ABL1 Y253H/E255K cells; settings: 72 h, CTG cell viability
# T1 construct: BCR (N-terminal fusion partner of the oncoprotein); expressed in transfected cells; host or cells: Ba/F3 (lentiviral transduction, monoclonal line)
# Experimental: (§1) In this assay, the Celltiter-Glo (CTG) kit provided by Promega was used, and it is a homogeneous cell viability assay method. The cell viability of cultured cells was measured by quantifying ATP. K562 cells were purchased from Nanjing Kebai, product number CBP60529; Ba/F3 parental cells were purchased from RIKEN BRC, product number RCB0805; other cells containing BCR-ABL1 WT, BCR-ABL1 T315I, BCR-ABL1 T315M, BCR-ABL1 Y253H/E255K, BCR-ABL1 E255V/T3151, BCR-ABL1 A424T, BCR-ABL1 A337V, BCR-ABL1 P465S, BCR-ABL1 V468F, and BCR-ABL1 I502L were all monoclonal engineered cell lines obtained by transducting Ba/F3 parental cells with the lentivirus plasmids containing WT or corresponding mutated BCR-ABL1.
# (§2) The steps of cell viability assay are as follows: • a) Cells in logarithmic growth phase were collected. Cell suspension was prepared and the cells were counted. Concentration of the cells was calculated. • b) The cell suspension was diluted to the required concentration and then added to the middle wells of a 96-well plate, and PBS was added to the edge wells. The wells with no cells and only culture medium were used as blank controls. • c) In addition to the cell plate used for compound analysis, another 96-well plate was prepared as a T0 plate, and 3-6 blank wells and 3-6 cell wells were added. The next day, CTG was used to test the cell viability as the T0 viability value of the cells. • d) The cell plate was incubated at 37 °C in a 5% CO2 incubator overnight. • e) The next day, each concentration of a compound subjected to a gradient dilution was added, and the cell plate was incubated at 37 °C in a 5% CO2 incubator for 72 h. The wells with no compound and only 0.5% DMSO were used as positive controls for cell growth. • f) CTG reagent (CellTiter-Glo kit) was added according to the manufacturer's instructions to test the cell viability value. • g) The plate was read using Biotek cytation3.0 microplate reader and the data were exported. • h) IC50 was calculated using GraphPad Prism 7.0 software.
# (§3) The IC50 (half-maximal inhibitory concentration) of the compound was obtained using the following nonlinear fitting formula: Y = Bottom + (Top−Bottom)/(1+10^(∧)((LogIC50−X)*HillSlope)) [formula] • X: Log value of the compound concentration • Y: Inhibition rate (% inhibition) • Top: Maximum response • Bottom: Baseline response • HillSlope: Slope of the curve
# (§4) The formula for calculating cell inhibition rate (inhibition rate %) was: [formula]
# Ba/F3 BCR-ABL1 V468F = molecular target: T2, Ba/F3 BCR-ABL1 V468F (Homo sapiens, UniProt P00519+P11274, V468F); test: Cell growth inhibitory activity assay (CellTiter-Glo), Ba/F3 BCR-ABL1 V468F cells; settings: 72 h, CTG cell viability
# T2 construct: BCR (N-terminal fusion partner of the oncoprotein); expressed in transfected cells; host or cells: Ba/F3 (lentiviral transduction, monoclonal line)
# Experimental: as §1, §2, §3, §4
# Ba/F3 BCR-ABL1 A424T = molecular target: T3, Ba/F3 BCR-ABL1 A424T (Homo sapiens, UniProt P00519+P11274, A424T); test: Cell growth inhibitory activity assay (CellTiter-Glo), Ba/F3 BCR-ABL1 A424T cells; settings: 72 h, CTG cell viability
# T3 construct: BCR (N-terminal fusion partner of the oncoprotein); expressed in transfected cells; host or cells: Ba/F3 (lentiviral transduction, monoclonal line)
# Experimental: as §1, §2, §3, §4
# [2] = molecular target: T4, Ba/F3 BCR-ABL1 E255V/T315I (Homo sapiens, UniProt P00519+P11274, E255V/T315I); test: Cell growth inhibitory activity assay (CellTiter-Glo), Ba/F3 BCR-ABL1 E255V/T315I cells; settings: 72 h, CTG cell viability
# T4 construct: BCR (N-terminal fusion partner of the oncoprotein); expressed in transfected cells; host or cells: Ba/F3 (lentiviral transduction, monoclonal line)
# Experimental: as §1, §2, §3, §4
# Ba/F3 BCR-ABL1 P465S = molecular target: T5, Ba/F3 BCR-ABL1 P465S (Homo sapiens, UniProt P00519+P11274, P465S); test: Cell growth inhibitory activity assay (CellTiter-Glo), Ba/F3 BCR-ABL1 P465S cells; settings: 72 h, CTG cell viability
# T5 construct: BCR (N-terminal fusion partner of the oncoprotein); expressed in transfected cells; host or cells: Ba/F3 (lentiviral transduction, monoclonal line)
# Experimental: as §1, §2, §3, §4
# Ba/F3 BCR-ABL1 I502L = molecular target: T6, Ba/F3 BCR-ABL1 I502L (Homo sapiens, UniProt P00519+P11274, I502L); test: Cell growth inhibitory activity assay (CellTiter-Glo), Ba/F3 BCR-ABL1 I502L cells; settings: 72 h, CTG cell viability
# T6 construct: BCR (N-terminal fusion partner of the oncoprotein); expressed in transfected cells; host or cells: Ba/F3 (lentiviral transduction, monoclonal line)
# Experimental: as §1, §2, §3, §4
# Ba/F3 BCR-ABL1 T315I = molecular target: T7, Ba/F3 BCR-ABL1 T315I (Homo sapiens, UniProt P00519+P11274, T315I); test: Cell growth inhibitory activity assay (CellTiter-Glo), Ba/F3 BCR-ABL1 T315I cells; settings: 72 h, CTG cell viability
# T7 construct: BCR (N-terminal fusion partner of the oncoprotein); expressed in transfected cells; host or cells: Ba/F3 (lentiviral transduction, monoclonal line)
# In short: (§5)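 Compound dilutions applied for 72 h (37 °C, 5% CO2) to overnight-plated Ba/F3 cells, parental or engineered to express WT/mutant BCR-ABL1. ATP-based CellTiter-Glo luminescence read, referenced to day-0 viability and 0.5% DMSO wells; IC50 fitted by four-parameter logistic curve.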
# Ba/F3 BCR-ABL1 A337V = molecular target: T8, Ba/F3 BCR-ABL1 A337V (Homo sapiens, UniProt P00519+P11274, A337V); test: Cell growth inhibitory activity assay (CellTiter-Glo), Ba/F3 BCR-ABL1 A337V cells; settings: 72 h, CTG cell viability
# T8 construct: BCR (N-terminal fusion partner of the oncoprotein); expressed in transfected cells; host or cells: Ba/F3 (lentiviral transduction, monoclonal line)
# Experimental: as §1, §2, §3, §4
# Ba/F3 BCR-ABL1 T315M = molecular target: T9, Ba/F3 BCR-ABL1 T315M (Homo sapiens, UniProt P00519+P11274, T315M); test: Cell growth inhibitory activity assay (CellTiter-Glo), Ba/F3 BCR-ABL1 T315M cells; settings: 72 h, CTG cell viability
# T9 construct: BCR (N-terminal fusion partner of the oncoprotein); expressed in transfected cells; host or cells: Ba/F3 (lentiviral transduction, monoclonal line)
# In short: as §5
# Ba/F3 parental cells = test: Cell growth inhibitory activity assay (CellTiter-Glo), Ba/F3 parental cells; settings: Mus musculus, BaF3, 72 h, CTG cell viability, read-out: IC50 Ba/F3 BCR-ABL1 Parental
# In short: as §5
# K562 cells = test: Cell growth inhibitory activity assay (CellTiter-Glo), K562 cells; settings: Homo sapiens, 72 h, CTG cell viability
# In short: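 K562 cells in logarithmic growth were counted, diluted and plated in 96-well plates, with medium-only blanks and a separate T0 plate read by CTG the following day. After overnight incubation, graded compound concentrations were added for 72 h, with 0.5% DMSO wells as growth controls. Luminescence was read on a Biotek cytation3.0, and IC50 came from nonlinear fitting in GraphPad Prism 7.0.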
# Ba/F3 BCR-ABL1 WT = molecular target: T10, Ba/F3 BCR-ABL1 WT (Homo sapiens, UniProt P00519+P11274); test: Cell growth inhibitory activity assay (CellTiter-Glo), Ba/F3 BCR-ABL1 WT cells; settings: 72 h, CTG cell viability
# T10 construct: BCR (N-terminal fusion partner of the oncoprotein); expressed in transfected cells; host or cells: Ba/F3 (lentiviral transduction, monoclonal line)
# In short: as §5
SMILES,IC50 [1] [nM],IC50 (Ba/F3 BCR-ABL1 V468F) [nM],IC50 (Ba/F3 BCR-ABL1 A424T) [nM],IC50 [2] [nM],IC50 (Ba/F3 BCR-ABL1 P465S) [nM],IC50 (Ba/F3 BCR-ABL1 I502L) [nM],IC50 (Ba/F3 BCR-ABL1 T315I) [nM],IC50 (Ba/F3 BCR-ABL1 A337V) [nM],IC50 (Ba/F3 BCR-ABL1 T315M) [nM],IC50 (Ba/F3 parental cells) [nM],IC50 (K562 cells) [nM],IC50 (Ba/F3 BCR-ABL1 WT) [nM]
"CCn1cc2c(n1)-c1cc(-c3cc(C(=O)Nc4ccc(OC(F)(F)Cl)cc4)cc4nc5n(c34)[C@H](C)COC5)cnc1C2 [T-18, (R)-N-(4-(chlorodifluoromethoxy)phenyl)-6-(2-ethyl-2,4-dihydropyrazolo[3',4':3,4]cyclopenta[1,2-b]pyridin-7-yl)-4-methyl-3,4-dihydro-1H-benzo[4,5]imidazo[2,1-c][1,4]oxazine-8-carboxamide]",≤ 5,5 to 50,5 to 50,≤ 5,5 to 50,5 to 50,≤ 5,5 to 50,> 1000,> 1000,≤ 5,≤ 5
"C[C@@H]1CCSc2nc3cc(C(=O)Nc4ccc(OC(F)(F)Cl)cc4)cc(-c4cnc5c(c4)C(=O)N(C)C5)c3n21 [T-20, (R)-N-(4-(chlorodifluoromethoxy)phenyl)-4-methyl-6-(6-methyl-5-oxo-6,7-dihydro-5H-pyrrolo[3,4-b]pyridin-3-yl)-3,4-dihydro-2H-benzo[4,5]imidazo[2,1-b][1,3]thiazine-8-carboxamide]",50 to 1000,50 to 1000,50 to 1000,5 to 50,50 to 1000,5 to 50,5 to 50,50 to 1000,> 1000,> 1000,≤ 5,≤ 5
"C[C@@H]1COCc2nc3cc(C(=O)Nc4ccc(OC(F)(F)Cl)cc4)cc(-c4cnc5c(c4)C(=O)N(C)C5)c3n21 [T-21, (R)-N-(4-(chlorodifluoromethoxy)phenyl)-4-methyl-6-(6-methyl-5-oxo-6,7-dihydro-5H-pyrrolo[3,4-b]pyridin-3-yl)-3,4-dihydro-1H-benzo[4,5]imidazo[2,1-c][1,4]oxazine-8-carboxamide]",5 to 50,50 to 1000,50 to 1000,5 to 50,50 to 1000,5 to 50,5 to 50,50 to 1000,> 1000,> 1000,≤ 5,≤ 5
"[2H]C([2H])([2H])N1Cc2ncc(-c3cc(C(=O)Nc4ccc(OC(F)(F)Cl)cc4)cc4nc5n(c34)[C@H](C)COC5)cc2C1=O [T-31, (R)-N-(4-(chlorodifluoromethoxy)phenyl)-4-methyl-6-(6-(methyl-d3)-5-oxo-6,7-dihydro-5H-pyrrolo[3,4-b]pyridin-3-yl)-3,4-dihydro-1H-benzo[4,5]imidazo[2,1-c][1,4]oxazine-8-carboxamide]",5 to 50,5 to 50,5 to 50,5 to 50,50 to 1000,50 to 1000,5 to 50,50 to 1000,5 to 50,> 1000,≤ 5,≤ 5
"C[C@@H]1COCc2nc3cc(C(=O)Nc4ccc(OC(F)(F)Cl)cc4)cc(-c4cnc5c(c4)-c4nn(S(C)(=O)=O)cc4C5)c3n21 [T-42, (R)-N-(4-(chlorodifluoromethoxy)phenyl)-4-methyl-6-(2-(methylsulfonyl)-2,4-dihydropyrazolo[3',4':3,4]cyclopenta[1,2-b]pyridin-7-yl)-3,4-dihydro-1H-benzo[4,5]imidazo[2,1-c][1,4]oxazine-8-carboxamide]",50 to 1000,50 to 1000,50 to 1000,50 to 1000,50 to 1000,50 to 1000,5 to 50,50 to 1000,50 to 1000,> 1000,≤ 5,≤ 5
